Laboratory results taken from patent publication US20250288558A1, “THERAPEUTIC FOR SPINAL CORD INJURY TO INDUCE HYPOTHERMIA” (The Trustees of Indiana University, priority 2024, published 2025).
Where “and” joins values, the source holds several entries; their conditions need not be identical. Equal entries are not always repeated. Structures can show the parent of a compound that is named as a salt. Where two headings read alike, the source gives them in different places.

Tests used:
[1] = tested on: none-injury young adult c57 BL/6 mice
Procedure: The effects of different doses of Dex on hypothermia induction in none-injury young adult c57 BL/6 mice was tested. […] Further, we examined the change of Dex induced hypothermia when the routine Avertin (2.5%), a wildly used anesthetic for small animal surgery was applied.

[2] = tested on: mice with moderate T9 contusive SCI; settings: weeks 3-6 post-injury, n=10, p<0.05
Text: Thus, Rotarod was further performed to assess motor coordination, balance, and motor learning specifically post-injury.
Rotarod test: Rotorod is used to assay the hindlimb function of the animal. The animal was put on a rotated device. It consisted of a metal frame with a motorized, rotating assembly of rods. Animals were allowed to remain stationary. […] If animal skilled, it can remain on the device at this speed for extra 30 sec until the 2-min test period elapsed. Normally, a trial was ended if the animal fell completely off the rod or gripped the rod and spun around without attempting to walk on the rod. Mean duration on the rod was recorded.

NeuN-positive neurons = settings: after SCI, FIG. 8A
Procedure: (§1) We further counted the number of NeuN-positive neurons in each section. […] Therefore, SMI31, an axon maker immunostaining was performed to evaluate the axons in spared white matter.
(§2) Immunofluorescent Staining: Immunofluorescent staining was carried out according to our previous reports. In brief, sections on the slides were rinsed in PBS 3 times (5 minutes each) and incubated in blocking buffer (0.1% Triton X-100, 1% bovine serum albumin, and 5% normal serum in PBS) for 1 hour at room temperature. Then, primary antibodies were added to blocking buffer and incubated with sections overnight at 4° C. After 3 washes with PBS (5 minutes each), sections were incubated with the secondary antibody for 1 hour at room temperature and then treated with 4′,6-Diamidino-2-phenylindole (DAPI) for 2 minutes. Finally, sections were washed 3 times with PBS (5 minutes each), dried, and mounted using Fluoromount G (Southern Biotech, Birmingham, AL, USA). Primary antibodies and their final concentrations were as follows: NeuN antibody (1:500, chicken, Abcam, ab134014), SMI31 antibody (1:1000, mouse, Millipore, NE1022), and GFAP antibody (1:1000, mouse, Sigma, G3893).

[3] = tested on: SMI31-positive axons in white matter; settings: FIG. 8B
Procedure: as §1, §2

GFAP = settings: epicenter
Procedure: as §2

[4] = tested on: mice with contusive T9 moderate SCI (IH); settings: Dex 100 μg/kg one hour post-trauma, IH model, ambient 24.5° C.
Procedure: Contusive spinal cord injury: Adult female C57BL/6 mice (8 weeks old, 18-22 g) were purchased from The Jackson Laboratory (Bar Harbor, ME). Depending on different injury model, mice were either randomly divided into three groups: sham, SCI+heating pad, and SCI+Dex for LISA injury model, or were randomly divided into four groups: sham, SCI+heating pad, SCI+Dex, and SCI+Conventional hypothermia for Infinite Horizons (IH) model. […] All animal care, handling, and surgery were performed in accordance with the Guide for the Care and Use of Laboratory Animals (National Research Council) and the Guidelines of the Institutional Animal Care and Use Committee of Indiana University School of Medicine. Spinal cord contusion was made at the thoracic (T9) vertebral level. After avertin anesthesia, animals will be placed on a thermometer-controlled heating pad for the duration of recovery (except Dex and conventional hypothermia treated group). For LISA injury model, C57/6J mice were anesthetized. […] The T9 contusion injury was performed using a LISA impactor, where the injury level was determined using a laser sensor. After injury confirmation, the surgical area is sutured, the animal is hydrated and monitored for post-operative care, including analgesia and bladder expression. […]

[5] = tested on: mice with contusive T9 moderate SCI (IH); settings: end of BMS test, IH model
Text: The scores ranged from 9 to 0 that represent normal movement to complete paralysis, respectively.

mouse with a SCI = settings: 4 hours after 1 ml saline IP injection, n=5
[6] = tested on: c-fos positive neurons in raphe nuclei; settings: during urodynamic recording
Text: During the urodynamic recording, brain stem neurons controlling the urination within the spared supraspinal circuitry were activated and expressed c-fos.

SMILES: Cc1cccc([C@H](C)c2cnc[nH]2)c1C [Dex, dexmedetomidine hydrochloride]
- hypothermia induction ([1]; Dex 1 μg/kg IP, none-injury mice): failed to induce hypothermia
- hypothermia induction ([1]; Dex 10 μg/kg IP, none-injury mice): failed to induce hypothermia
- duration of hypothermia ([1]; Dex 50 μg/kg IP, ambient temperature 24.5° C.): less than one hour
- hypothermia body temperature ([1]; Dex 50 μg/kg IP, ambient temperature 24.5° C., mild hypothermia): 34-35 °C
- duration of hypothermia ([1]; Dex 50 μg/kg one hour post Avertin (2.5%), none-injury mice): 2 h
- duration of hypothermia ([1]; Dex 100 μg/kg IP alone, ambient temperature 24.5° C., hydrochloride): 2 h and 3 h
- hypothermia body temperature ([1]; Dex 100 μg/kg IP, mild to moderate hypothermia): 30-32 °C
- duration of hypothermia ([1]; Dex 100 μg/kg one hour post Avertin (2.5%), none-injury mice): 6 h
- death of treated mice ([1]; Dex 200 μg/kg IP, due to urethral obstructions): about 40%
- hypothermia body temperature ([1]; Dex 200 μg/kg IP, more severe hypothermia): lower than 28 °C
- induced hypothermia body temperature ([1]; in one hour at ambient temperatures 24-25° C., modest hypothermia): 30-32 °C
- increased rate of Rotarod retention time vs. SCI only [2]: around 75%
- surviving NeuN-positive neurons compared to none-treatment group (NeuN-positive neurons): about 10 times
- SMI31 signal (intensity and area) vs. SCI [3]: significantly preserved more
- intensity of GFAP-positive signal compared to none-treatment SCI mice (GFAP): decreased significantly
- duration of moderate hypothermia [4]: 16 h
- BMS increase rate vs. SCI [5]: 56%
- BMS score ([5]; SCI+Dex, n=10): 7.13±0.48
- frequency of urination (mouse with a SCI): 6±0.82
- urine volume (mouse with a SCI): 0.3 ± 0.04 mL
- c-fos positive neurons in raphe nuclei vs. SCI group [6]: Significantly more c-fos positive neurons
